# Experimental data as given in patent US20160232293A1, “DRUG SENSITIVITY BIOMARKERS AND METHODS OF IDENTIFYING AND USING DRUG SENSITIVITY BIOMARKERS” (SANFORD-BURNHAM MEDICAL RESEARCH INSTITUTE, priority 2013, published 2016).
# Key:
# human cancer cell lines = assay: e-Drug analysis: CCLE drug activity (activity area) in cell lines with missense mutations in a protein functional region (PFR) or whole protein versus cell lines without; type: cell-based
# Source text: The CCLE (Cancer Cell Line Encyclopedia; website broadinstitute.org/ccle; Barretina et al., Nature 483:603-607 (2012)) dataset, which includes the mutation profiles of 1,668 genes in 906 human cancer cell lines and drug activity data for 24 different anticancer compounds, was used in the present study. The analysis was focused on missense mutations, as truncating mutations can sometimes be misleading when performing the analysis in terms of functional regions. For example, when analyzing a protein that contains two different domains, if a truncating mutation happens in the first domain, it is not obvious whether the functional consequences of the mutation are caused by the fact that the first domain is altered or that the second domain is missing. […] From the original 42,603 genomic-point mutations in 1,668 genes, 156,817 protein missense mutations were obtained in 9,311 proteins.
# CCLE contains data on the drug activity of 24 different compounds in 479 cell lines from 8-point dose-response curves. […] In our analysis only the activity area was used because, according to the CCLE, it captures simultaneously both variables of drug activity: its efficacy and its potency.
# For the present study, protein functional regions were defined as domains or intrinsically disordered regions. […] To identify protein domains, annotated Pfam domains were retrieved from ENSEMBL for each protein isoform. A set of 1,300 potential domains identified by AIDA (ab initio domain assembly; Xu et al., Nucleic Acids Research 12:W308-W313 (2014) (Web Server issue); Internet site ffas.burnham.org/AIDA/), an algorithm based on remote homology, were also included. Foldindex (Prilusky et al., Bioinformatics 21(16):3435-8 (2005)) was used to predict intrinsically disordered regions for each protein. Those regions with a predicted unfolded score below −0.1 were included in the present study.
# The different mutations of each cell line were mapped to these protein features, giving a total of 30,798 altered regions in 906 cell lines. These regions are divided into 19,918 Pfam domains and 10,880 intrinsically disordered regions. Note that the features can overlap, as the predictions were performed independently and there is no reason why, for example, an intrinsically unfolded region cannot overlap with (or even be located within) a Pfam domain. Note also that these numbers refer to PFRs in all known protein isoforms according to ENSEMBL v72.
# The e-Drug analysis protocol looks for PFRs that, when mutated, correlate with drug activity of the different drugs. […] A Wilcoxon test was then performed comparing the drug activity of each compound in the two groups and kept those with a p-value below 0.01. Finally, for those gene regions associated to a certain drug, the activity of the cell lines mutated in the region of interest was compared to the activity of cell lines mutated in other regions of the gene. […] In this case, since the number of cell lines in both groups is lower and fewer tests were performed, a significance threshold of 0.05 instead of 0.01 was established. True positives were considered those PFR that passed both thresholds and that are not in proteins that show an association (p<0.01) with the same drug at the whole-protein level. Note that the analysis is performed independently for each PFR.
# To overcome these limitations and decrease the number of false positives among the associations three different thresholds were required for an association to be considered positive (see
# [1] = TCGA survival analysis of patients treated with CCLE drugs, grouped by mutations in resistance-associated PFRs; type: in vivo, human; conditions: for outcome of treated patients with mutations in PFRs associated with resistance vs mutations in other regions of the same proteins or no mutations: TCGA patients treated with Topoisomerase inhibitors Irinotecan and Topotecan (n=188), pooled, p<0.01; for prediction of patient outcome by mutation status of the whole proteins that contain the associated PFRs: TCGA patients treated with Topoisomerase inhibitors, whole-protein level
# Source text: Both clinical and mutation data for the 3,205 tumors described in the pan-cancer analysis of the TCGA were downloaded. Data from patients that had not been treated with any of the drugs included in the CCLE was then filtered out. Since most drugs included in the CCLE are still in under clinical research, there were only enough patients to analyze 2 different drugs: paclitaxel (n=778) and irinotecan (n=58). Each of these subsets of patients have then been classified in 3 groups: those that have a mutation in a PFR that, according to the analysis, increases resistance to the drug used to treat them; those with mutations in other regions of the same genes; and those with no mutations in these genes.
# As a result very few patients in the TCGA dataset carry mutations in the former type of regions and were treated with the matching drug. The survival analysis was performed using the “Survival” package for R.
smiles,measurement,setting,value
C#Cc1cccc(Nc2ncnc3cc(OCCOC)c(OCCOC)cc23)c1 [Erlotinib],association of MSH6 mutations with the drug at protein level,"human cancer cell lines; protein level analysis, MSH6 whole protein",potential association
CCc1c2c(nc3ccc(OC(=O)N4CCC(N5CCCCC5)CC4)cc13)-c1cc3c(c(=O)n1C2)COC(=O)[C@]3(O)CC [Irinotecan],outcome of treated patients with mutations in PFRs associated with resistance vs mutations in other regions of the same proteins or no mutations,[1],worse outcomes
same,prediction of patient outcome by mutation status of the whole proteins that contain the associated PFRs,[1]; p>0.9,cannot predict the outcome
CS(=O)(=O)CCNCc1ccc(-c2ccc3ncnc(Nc4ccc(OCc5cccc(F)c5)c(Cl)c4)c3c2)o1 [Lapatinib],drug activity associated with mutations in the connector domain (Pf05188) of MSH6,"human cancer cell lines; PFR level, missense mutations, MSH6 Pf05188",higher
C[C@@H](Oc1cc(-c2cnn(C3CCNCC3)c2)cnc1N)c1c(Cl)ccc(F)c1Cl [PF2341066],sensitivity of cell lines with mutations in the ERBB3 receptor domain,"human cancer cell lines; PFR level analysis, N-terminal EGF receptor domain of ERBB3",resistant
same,behavior of cell lines with mutations in any other PFR of ERBB3,"human cancer cell lines; PFR level analysis, other PFRs of ERBB3 such as the kinase domain",do not show any specific behavior
same,activity of the drug in cell lines with mutations in ERBB3,"human cancer cell lines; protein level analysis, ERBB3 whole protein",do not show any bias
CC(=O)O[C@H]1C(=O)[C@@]2(C)[C@H]([C@H](OC(=O)c3ccccc3)[C@]3(O)C[C@H](OC(=O)[C@H](O)[C@@H](NC(=O)c4ccccc4)c4ccccc4)C(C)=C1C3(C)C)[C@]1(OC(C)=O)CO[C@@H]1C[C@@H]2O [Paclitaxel],outcome of treated patients with mutations in PFRs associated with increased resistance,"[1]; TCGA patients treated with paclitaxel (n=778), p>0.9",no differences
Cn1c(Nc2ccc(C(F)(F)F)cc2)nc2cc(Oc3ccnc(-c4ncc(C(F)(F)F)[nH]4)c3)ccc21 [RAF265],drug activity associated with mutations in the ATPase domain (Pf00488) of MSH6,"human cancer cell lines; PFR level, missense mutations, MSH6 Pf00488",higher
CC[C@@]1(O)C(=O)OCc2c1cc1n(c2=O)Cc2cc3c(CN(C)C)c(O)ccc3nc2-1 [Topotecan],outcome of treated patients with mutations in PFRs associated with resistance vs mutations in other regions of the same proteins or no mutations,[1],worse outcomes
same,prediction of patient outcome by mutation status of the whole proteins that contain the associated PFRs,[1]; p>0.9,cannot predict the outcome
